Experimental data reported in PMC7814170 (Molecular Biotechnology, 2021).

Molecular target: SARS-CoV-2 main protease 3CLpro (Severe acute respiratory syndrome coronavirus 2, UniProt P0DTD1)
Assay: cell-based
Conditions: read-out: inhibition to viral protease (reduction in GFP fluorescent activity)

Question: Which inhibition at 40 µM does the source give for CC(C)(C)NC(=O)N[C@H](C(=O)N1C[C@H]2[C@@H]([C@H]1C(=O)NC(CC1CCC1)C(=O)C(N)=O)C2(C)C)C(C)(C)C (stereo partly shown) [Boceprevir, boceprevir, reference compound] here?
Answer: 80%

Question: With O=C1c2ccccc2NC(c2cc(Br)ccc2O)N1N=Cc1cc(Br)ccc1O (stereo not shown) [QZ1, 3-(5-Bromo-2-hydroxybenzylideneamino)-2-(5-bromo-2-hydroxyphenyl)-2,3-dihydroquinazoline-4 (1H)-one] as the compound, how does the inhibition at 40 µM read?
Answer: 20 to 50%

Question: For O=C1c2ccccc2NC(c2cc(Cl)ccc2O)N1N=Cc1cc(Cl)ccc1O (stereo not shown) [QZ2, 3-[(5-Chloro-2-hydroxy-benzylidene)-amino]-2-(5-chloro-2-hydroxy-phenyl)-2,3-dihydroquinazoline-4(1H)-one], which inhibition at 40 µM is on record?
Answer: 20 to 50%

Question: With COc1cc(Br)cc(C=NN2C(=O)c3ccccc3NC2c2cc(Br)cc(OC)c2O)c1O (stereo not shown) [QZ3, 3-(5-Bromo-2-hydroxy-3-methoxybenzylideneamino)-2-(5-bromo-2-hydroxy-3-methoxyphenyl)-2,3-dihydroquinazoline-4(1H)-one] as the compound, how does the inhibition at 40 µM read?
Answer: 20 to 50%

Question: For COc1ccc(O)c(C=NN2C(=O)c3ccccc3NC2c2cc(OC)ccc2O)c1 (stereo not shown) [QZ4, 3-(5-Methoxy-2-hydroxybenzylideneamino)-2(5-methoxy-2-hydroxyphenyl)-2,3-dihydroquinazoline-4(1H)-one], which inhibition at 40 µM is on record?
Answer: ~80%

Question: Which inhibition at 40 µM does the source give for O=C1c2ccccc2NC(c2cc([N+](=O)[O-])ccc2O)N1N=Cc1cc([N+](=O)[O-])ccc1O (stereo not shown) [QZ5, 3-(5-Nitro-2-hydroxybenzylideneamino)-2(5-nitro-2-hydroxyphenyl)-2,3-dihydroquinazoline-4(1H)-one] here?
Answer: 20 to 50%

System: SARS-CoV-2 main protease
Assay: not given
Conditions: read-out: EC50 measured by FRET-based enzymatic assay; cited from earlier work

Question: For CC(C)(C)NC(=O)N[C@H](C(=O)N1C[C@H]2[C@@H]([C@H]1C(=O)NC(CC1CCC1)C(=O)C(N)=O)C2(C)C)C(C)(C)C (stereo partly shown) [Boceprevir, boceprevir, reference compound], which EC50 is on record?
Answer: […]
